According to ChEMBL document CHEMBL2150932, “Structure-activity relationships and molecular modeling of 1,2,4-triazoles as adenosine receptor antagonists” (ACS Med Chem Lett, 2012):

How the values were obtained:
[1] = molecular target: T1, Adenosine receptor A1 (Homo sapiens) (UniProt P30542); experiment: Inhibition of human A1 adenosine receptor expressed in CHO cells at 10 uM after 60 mins by liquid scintillation counting; assay type: cell-based
T1 sequence (whole entry): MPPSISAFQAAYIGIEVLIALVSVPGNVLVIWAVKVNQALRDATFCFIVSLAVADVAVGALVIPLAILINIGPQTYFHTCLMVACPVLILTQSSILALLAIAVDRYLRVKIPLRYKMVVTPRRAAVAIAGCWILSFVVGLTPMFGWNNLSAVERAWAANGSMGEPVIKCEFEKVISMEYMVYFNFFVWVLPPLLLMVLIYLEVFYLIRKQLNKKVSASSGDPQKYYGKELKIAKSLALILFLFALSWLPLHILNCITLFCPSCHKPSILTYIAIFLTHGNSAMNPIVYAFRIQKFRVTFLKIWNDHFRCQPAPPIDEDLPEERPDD

[2] = molecular target: T2, Adenosine receptor A2b (Homo sapiens) (UniProt P29275); experiment: Antagonist activity at human A2B adenosine receptor expressed in CHO cells assessed as inhibition of NECA-induced cAMP accumulation at 10 uM after 20 mins; assay type: functional, cell-based
T2 sequence (whole entry): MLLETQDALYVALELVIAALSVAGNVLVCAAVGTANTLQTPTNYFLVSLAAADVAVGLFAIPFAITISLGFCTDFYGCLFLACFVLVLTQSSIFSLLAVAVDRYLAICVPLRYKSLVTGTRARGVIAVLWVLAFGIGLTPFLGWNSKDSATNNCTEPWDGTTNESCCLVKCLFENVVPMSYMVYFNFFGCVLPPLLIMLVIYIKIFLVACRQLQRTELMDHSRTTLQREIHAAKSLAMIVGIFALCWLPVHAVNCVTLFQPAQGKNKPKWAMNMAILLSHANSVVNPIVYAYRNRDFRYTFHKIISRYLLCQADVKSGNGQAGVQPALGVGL

Adenosine receptor A3 = molecular target: T3, Adenosine receptor A3 (Homo sapiens, UniProt P0DMS8); experiment: Displacement of […] from human A3 adenosine receptor expressed in CHO cells after 60 mins by liquid scintillation counting; assay type: cell-based
T3 sequence (P0DMS8 whole entry): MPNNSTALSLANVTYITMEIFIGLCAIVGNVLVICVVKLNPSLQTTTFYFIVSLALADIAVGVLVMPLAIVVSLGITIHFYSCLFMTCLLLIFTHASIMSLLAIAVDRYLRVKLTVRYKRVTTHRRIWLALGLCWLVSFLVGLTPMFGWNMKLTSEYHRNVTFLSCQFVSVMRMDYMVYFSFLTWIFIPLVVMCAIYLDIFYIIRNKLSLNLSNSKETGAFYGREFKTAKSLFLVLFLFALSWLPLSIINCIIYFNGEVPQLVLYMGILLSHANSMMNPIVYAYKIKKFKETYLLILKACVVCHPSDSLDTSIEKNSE

Adenosine receptor A2a [3] = molecular target: T4, Adenosine receptor A2a (Homo sapiens, UniProt P29274); experiment: Displacement of [3H]CGS21680 from human A2A adenosine receptor expressed in HEK293 cells after 60 mins by liquid scintillation counting; assay type: cell-based
T4 sequence (P29274 whole entry): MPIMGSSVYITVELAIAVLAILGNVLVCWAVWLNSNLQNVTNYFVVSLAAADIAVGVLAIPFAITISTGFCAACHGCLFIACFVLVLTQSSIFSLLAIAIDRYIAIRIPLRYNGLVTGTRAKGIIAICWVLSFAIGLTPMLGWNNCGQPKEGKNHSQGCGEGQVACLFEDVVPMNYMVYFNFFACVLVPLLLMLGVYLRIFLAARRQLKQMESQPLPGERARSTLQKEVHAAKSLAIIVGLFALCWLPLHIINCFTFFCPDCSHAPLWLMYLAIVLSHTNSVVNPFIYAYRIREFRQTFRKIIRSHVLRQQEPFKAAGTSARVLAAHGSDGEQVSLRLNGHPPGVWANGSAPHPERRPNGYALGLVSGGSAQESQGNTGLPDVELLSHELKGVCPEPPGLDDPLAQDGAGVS

Adenosine receptor A2a [4] = molecular target: T4, Adenosine receptor A2a; experiment: Displacement of [3H]CGS21680 from human A2A adenosine receptor expressed in HEK293 cells at 10 uM after 60 mins by liquid scintillation counting; assay type: cell-based
[5] = molecular target: T5, Adenosine receptor A3 (Homo sapiens) (UniProt P0DMS8); experiment: Displacement of […] from human A3 adenosine receptor expressed in CHO cells at 10 uM after 60 mins by liquid scintillation counting; assay type: cell-based
T5 sequence (whole entry): T3 sequence (P0DMS8 whole entry)

Adenosine receptor A1 = molecular target: T6, Adenosine receptor A1 (Homo sapiens, UniProt P30542); experiment: Inhibition of human A1 adenosine receptor expressed in CHO cells after 60 mins by liquid scintillation counting; assay type: cell-based
T6 sequence (P30542 whole entry): T1 sequence (whole entry)

| Structure (SMILES) | inhibition [1] [%] | inhibition [2] [%] | Ki (Adenosine receptor A3) [nM] | Ki (Adenosine receptor A2a [3]) [nM] | inhibition (Adenosine receptor A2a [4]) [%] | inhibition [5] [%] | Ki (Adenosine receptor A1) [nM] |
| --- | --- | --- | --- | --- | --- | --- | --- |
| Cc1ccccc1OCC(=O)Nc1nc(-c2ccccc2)n[nH]1 | 16 | 13 | – | – | – | – | – |
| Cc1cccc(-c2nnc(NC(=O)C(C)Oc3ccccc3)[nH]2)c1 (configuration not stated) | – | – | 5900 | 2000 | – | – | – |
| Cc1cccc(-c2n[nH]c(NC(=O)[C@H](C)Oc3ccccc3)n2)c1 | 13 | – | – | – | 23 | 32 | – |
| COc1ccccc1NC(=O)Nc1nc(-c2ccccc2)n[nH]1 | 22 | 10 | – | – | – | – | – |
| Cc1cc(C)cc(OCC(=O)Nc2nnc(-c3ccccc3)[nH]2)c1 | – | – | 2700 | 3200 | – | – | 1600 |
| Cc1ccc(-c2n[nH]c(NC(=O)COc3ccccc3F)n2)cc1 | 2 | 11 | – | – | 2 | 50 | – |
| CC(C)(Oc1ccc(Cl)cc1)C(=O)Nc1nc(-c2ccccc2)n[nH]1 | 41 | 6 | – | – | – | – | – |
| O=C(Nc1nc(-c2ccccc2)n[nH]1)C1CCCO1 (configuration not stated) | – | -7 | 3100 | 5900 | – | – | 3200 |
| O=C(Nc1nnc(-c2ccccc2)[nH]1)c1ccc(Cl)cc1 | – | – | 200 | 2800 | – | – | – |
| CCC(=O)Nc1nc(-c2ccccc2)n[nH]1 | 39 | 8 | 300 | 2500 | – | – | – |
| Cc1ccccc1-c1n[nH]c(NC(=O)[C@@H](C)Oc2ccccc2)n1 | 6 | -3 | – | – | 26 | 48 | – |
| O=C(COc1ccccc1)Nc1nc(-c2ccc(F)cc2)n[nH]1 | 2 | -10 | 1500 | 3500 | – | – | – |
| C[C@@H](Oc1ccc(Cl)cc1)C(=O)Nc1nc(-c2ccccc2)n[nH]1 | – | 51 | 2500 | 4000 | – | – | 3900 |
| Cc1ccc(O[C@H](C)C(=O)Nc2nc(-c3ccco3)n[nH]2)cc1 | 37 | – | 5300 | – | 38 | – | – |
| Cc1cccc(O[C@H](C)C(=O)Nc2nc(-c3ccccc3)n[nH]2)c1 | – | 18 | – | – | – | – | – |
| C[C@@H](Oc1ccccc1)C(=O)Nc1nc(-c2ccccc2)n[nH]1 | – | 23 | 3300 | 1000 | – | – | 5200 |
| C[C@@H](Sc1ccccc1)C(=O)Nc1nc(-c2ccccc2)n[nH]1 | – | 21 | – | – | – | – | – |
| COc1ccccc1NC(=O)Nc1nnc(-c2ccccc2)[nH]1 | – | – | 300 | 200 | – | – | – |
| Cc1cccc(OCC(=O)Nc2nc(-c3ccccc3)n[nH]2)c1 | – | 8 | 1500 | 2000 | – | – | 2300 |
| Cc1cc(C)cc(OCC(=O)Nc2nc(-c3ccccc3)n[nH]2)c1 | – | -5 | – | – | – | – | – |
| CC(=O)Nc1nc(-c2ccccc2)n[nH]1 | 18 | 10 | – | – | 43 | – | – |
| O=C(COCc1ccccc1)Nc1nc(-c2ccccc2)n[nH]1 | – | 7 | 4600 | 5000 | – | – | 8100 |
| Cc1ccc(C(=O)Nc2nc(-c3ccccc3)n[nH]2)cc1 | – | 29 | 100 | 300 | – | – | 1300 |
| Cc1cccc(-c2n[nH]c(NC(=O)[C@@H](C)Oc3ccccc3)n2)c1 | 12 | – | 6300 | 1800 | – | – | – |
| Cc1cccc(C)c1OCC(=O)Nc1nc(-c2ccccc2)n[nH]1 | 49 | 43 | 5500 | 1700 | – | – | – |
| C[C@@H](Oc1cccc(Cl)c1)C(=O)Nc1nnc(-c2ccccc2)[nH]1 | – | – | 2600 | 1000 | – | – | 1100 |

| Structure (SMILES) | inhibition [1] [%] | inhibition [2] [%] | Ki (Adenosine receptor A3) [nM] | Ki (Adenosine receptor A2a [3]) [nM] | inhibition (Adenosine receptor A2a [4]) [%] | inhibition [5] [%] | Ki (Adenosine receptor A1) [nM] |
| --- | --- | --- | --- | --- | --- | --- | --- |
| Cc1cccc(-c2n[nH]c(NC(=O)C(C)Oc3ccccc3)n2)c1 (configuration not stated) | 8 | 5 | – | – | – | – | – |
| O=C(COc1ccc2c(c1)CCC2)Nc1nc(-c2ccccc2)n[nH]1 | 46 | 9 | 2200 | 3900 | – | – | – |
| CCCC(=O)Nc1nnc(-c2ccccc2)[nH]1 | – | – | 200 | 1100 | – | – | 800 |
| C[C@@H](Oc1ccccc1F)C(=O)Nc1nc(-c2ccccc2)n[nH]1 | – | 31 | – | – | – | – | – |
| COc1ccccc1OCC(=O)Nc1nc(-c2ccc(C)cc2)n[nH]1 | 8 | -10 | – | – | 49 | – | – |
| CC(=O)Nc1nnc(-c2ccccc2)[nH]1 | – | – | 300 | – | – | – | – |
| CCCC(=O)Nc1nc(-c2ccccc2)n[nH]1 | – | 5 | – | – | – | – | – |
| O=C(Nc1nc(-c2ccccc2)n[nH]1)c1ccccc1 | – | 72 | – | – | – | – | – |
| O=C(CCc1ccccc1)Nc1nc(-c2ccccc2)n[nH]1 | 40 | 40 | 8300 | 3400 | – | – | – |
| O=C(COc1ccccc1)Nc1nnc(-c2ccccc2)[nH]1 | – | – | 2300 | 1800 | – | – | – |
| Cc1ccccc1OCC(=O)Nc1nnc(-c2ccccc2)[nH]1 | – | – | 1000 | 1700 | – | – | – |
| Cc1ccc(O[C@H](C)C(=O)Nc2nc(-c3ccccc3)n[nH]2)cc1 | 38 | -6 | 1400 | 6400 | – | – | – |
| COc1ccccc1C(=O)Nc1nc(-c2ccccc2)n[nH]1 | – | 16 | 600 | 200 | – | – | 500 |
| Cc1ccc(-c2n[nH]c(NC(=O)COc3ccccc3)n2)cc1 | – | 23 | – | – | – | – | – |
| CC[C@@H](Oc1ccccc1)C(=O)Nc1nc(-c2ccccc2)n[nH]1 | – | -9 | 1900 | 1400 | – | – | 1500 |
| C[C@@H](Oc1ccccc1F)C(=O)Nc1nnc(-c2ccccc2)[nH]1 | – | – | 2600 | 1000 | – | – | 3700 |
| C[C@@H](Oc1cccc(Cl)c1)C(=O)Nc1nc(-c2ccccc2)n[nH]1 | – | 28 | – | – | – | – | – |
| Cc1ccc(-c2nnc(NC(=O)COc3ccccc3)[nH]2)cc1 | – | – | 3200 | 3600 | – | – | 6500 |
| CC(C)(Oc1ccc(Cl)cc1)C(=O)Nc1nnc(-c2ccccc2)[nH]1 | – | – | 500 | 8800 | – | – | – |
| O=C(COc1ccccc1)Nc1nc(-c2ccccc2)n[nH]1 | 20 | 16 | – | – | – | – | – |
| O=C(Nc1nc(-c2ccccc2)n[nH]1)c1ccc(Cl)cc1 | 31 | -2 | – | – | – | – | – |
| O=C(Nc1nnc(-c2ccccc2)[nH]1)c1ccccc1 | – | – | 300 | 400 | – | – | 1900 |
| Cc1cccc(O[C@H](C)C(=O)Nc2nnc(-c3ccccc3)[nH]2)c1 | – | – | – | 1200 | – | – | – |
| COc1ccccc1OCC(=O)Nc1nnc(-c2ccc(C)cc2)[nH]1 | – | – | 1000 | – | – | – | – |
| C[C@@H](Sc1ccccc1)C(=O)Nc1nnc(-c2ccccc2)[nH]1 | – | – | 1900 | 2200 | – | – | 3300 |
| COc1ccc(CC(=O)Nc2nc(-c3ccccc3)n[nH]2)cc1 | 29 | -6 | – | – | – | – | – |
